Values joined by “and” are separate entries in the source; they are usually repeats but may differ in a detail not shown here. Identical values can stand only once.

The melting point is the temperature, or range, at which the solid turns liquid. In turn, `O=C(O)/C(=C/c1ccccc1)c1ccccc1` [alpha-phenylcinnamic acid] yielded a melting point of 173 °C.
To `[C-]#[N+]CS(=O)(=O)c1ccc(C)cc1` [p-toluenesulfonylmethyl isocyanide] belongs 112 °C; to `Cc1ccc(C(=O)CCC(=O)O)cc1` [3-(4-methylbenzoyl)propionic acid], 126 °C; to `N[C@@H](Cc1ccc(F)c(F)c1)C(=O)O` (racemic) [3,4-difluoro-dl-phenylalanine], 233 °C.
To `ClCC(CCl)(CCl)CCl` [pentaerythrityl tetrachloride] belongs 95 °C; to `NNC(=O)NN` [carbohydrazide], 156 °C.
Regarding `Nc1ccc(C(=O)O)cc1` [4-aminobenzoic acid], the melting point worked out at 188 °C.
To `Cc1cc(/C=C2\SC(N(CC#N)c3ccccc3)=NC2=O)c(C)n1-c1ccc(C(F)(F)F)cc1` [OSM-S-42] belongs 182 °C.
Consider `O=C(C(=O)c1ccccc1)c1ccccc1` [benzil], for which the melting point is 95 °C.
The result for `Fc1ccc(/C=N/n2c(S)nnc2C(F)(F)F)cc1` reads 212 °C.
In the case of `C1CC[C@H]2CCCC[C@H]2C1` [cis-Decahydronaphthalene], the melting point is -43 °C.
The result for `Cc1c(C)c(C)c(C)c(C)c1C` [Hexamethylbenzene] reads 167 °C; that for `O=[N+]([O-])c1cc[n+]([O-])cc1Br` [3-bromo-4-nitropyridine n-oxide], 153 °C; that for `OB(O)c1ccc(Br)c(F)c1F` [4-bromo-2,3-difluorobenzeneboronic acid], 225 °C.
In turn, `CCOC(=O)c1ccccc1C(=O)OCC` [diethyl_phthalate] yielded a melting point of -3 °C.
For the compound `CCCCC(=O)O` [valeric acid], the melting point is -34 °C.
For the compound `COc1ccc(C(=O)C=C(C)c2ccc(OC)cc2)cc1` [trans-4,4'-Dimethoxy-beta-methylchalcone], the melting point amounted to 87 °C.
To `C[Si](C)(C)c1c2c(cc3c1-c1ccccc1OC3)CCCC2=O` belongs 159 °C.
`CCCC1=NNC(=O)C1` [3-n-propyl-2-pyrazolin-5-one] showed a melting point of 208 °C.
The result for `CCN(Cc1ccncc1)C(=O)C(CO)c1ccccc1` (stereo not given) [tropicamide] reads 96 °C.
The compound `N(=N/c1ccccc1)c2ccccc2` [azobenzene] showed a melting point of 69 °C.
`O=C(O)c1cc(=O)[nH]c(=O)[nH]1` [orotic acid] gave a melting point of 346 °C.
As to `OCc1ccccc1-c1ccccc1` [2-biphenylmethanol], the melting point turned out to be 49 °C.
To `Cc1nnc2n1-c1ccc(Cl)cc1C(c1ccccc1Cl)=NC2` [Triazolam] belongs 234 °C; to `Nc1cccc(Cl)c1Cl` [2,3-dichloroaniline], 24 °C; to `C#CCCCCCC` [1-octyne], -79 °C.
The result for `Cc1cc(Br)ccc1Br` [2,5-dibromotoluene] reads 6 °C.
As to `COc1ccc(I)cc1` [4-iodoanisole], the melting point was 50 °C.
To `O=C(O)Cc1ccccc1Nc1c(Cl)cccc1Cl` [Diclofenac] belongs 157 °C; to `CCCCOCCO` [2-Butoxyethanol], -75 °C.
The result for `COC(=O)c1ccc(OC)c(C#N)c1` [methyl 3-cyano-4-methoxybenzoate] reads 122 °C; that for `O=[N+]([O-])c1ccccc1I` [1-iodo-2-nitrobenzene], 51 °C; that for `O=C(O)c1cc(F)cc(C(F)(F)F)c1` [3-fluoro-5-(trifluoromethyl)benzoic acid], 104 °C.
In the case of `O=C(O)CCc1cccc(O)c1` [3-(3-hydroxyphenyl)propionic acid], the melting point was determined as 112 °C.
`C[C@@H](O)[C@@H](C)O` [R,R-2,3-butanediol]: the melting point was found to be 16 °C.
The result for `c1ccc(Nc2ccccc2)cc1` [diphenylamine] reads 52 °C and 53.5 °C and 54 °C.
To `COc1ccc(Cl)cc1B(O)O` [5-chloro-2-methoxybenzeneboronic acid] belongs 138 °C.
With `OB(O)c1cccnc1F` [2-fluoropyridine-3-boronic acid], the melting point was 172 °C.
On to `O=Cc1ccc([N+](=O)[O-])cc1` [p-nitrobenzaldehyde], for which the melting point is 108 °C.
With `COC(=O)c1ccccc1C(=O)OC` [dimethyl phthalate], the melting point stood at 5 °C.
The result for `O=C(O)c1ccc(Br)cc1` [p-bromobenzoic acid] reads 252 °C.
The compound `CC(C)(C)OC(=O)Nc1ccc(C#N)cn1` [2-(boc-amino)-5-cyanopyridine] showed a melting point of 173 °C.
In the case of `COc1cccc(C=O)c1O` [o-vanillin], the melting point was 44.5 °C.
For `CCS` [ethanethiol], the melting point is -148 °C.
To `CC(Cc1ccccc1)c1ccccc1` (stereo not given) [1,2-diphenylpropane] belongs 0 °C; to `CC(=O)C=C(C)C` [mesityl oxide], -59 °C; to `NC(Cc1cc(I)c(Oc2cc(I)c(O)c(I)c2)c(I)c1)C(=O)O` (stereo not given) [Dextrothyroxine], 236 °C.
The compound `Clc1ccc(NC(/N)=NC(N)=NC(C)C)cc1` [Proguanil] registered a melting point of 129 °C.
To `O=c1cc(-c2ccccc2)[nH]o1` [3-phenyl-5-isoxazolone] belongs 152 °C; to `CCCCC(C)=O` [2-hexanone], -56 °C; to `CC(=O)CCC(C)=O` [2,5-hexanedione], -6 °C.
The result for `Brc1ccc2ncsc2c1` [6-bromobenzothiazole] reads 53 °C.
The result for `Clc1ccc(Cl)cc1` [1,4-Dichlorobenzene] reads 53 °C.
`CCOC(=O)Cc1ccccc1` [ethyl phenylacetate] registered a melting point of -29 °C.
To `O=C1c2ccccc2-c2cccc3cccc1c23` [7h-benz[de]anthracen-7-one] belongs 173 °C; to `CN(C)c1ccc([N+]([O-])=CC(=O)c2ccc(C(=O)C=[N+]([O-])c3ccc(N(C)C)cc3)cc2)cc1`, 133 °C.
Compound `N#CCc1nn(-c2ccccc2)c(N)c1C#N` [5-amino-4-cyano-3-cyanomethyl-1-phenyl-1h-pyrazole,] showed a melting point of 164 °C.
The compound `CC(O)CO` (stereo not given) [1,2-propanediol] had a melting point of -60 °C.
To `OB(O)c1cc(Cl)cc(Cl)c1Cl` [2,3,5-trichlorobenzeneboronic acid] belongs 245 °C; to `C=CCI` [allyl iodide], -99 °C; to `COc1cc2c(c(OC)c1OC)-c1ccc(OC)c(=O)cc1[C@@H](NC(C)=O)CC2` [Colchicine], 156 °C.
The result for `ClCCCl` [1,2-dichloroethane] reads -35 °C; that for `Cc1ccccn1` [2-picoline], -70 °C.
The compound `CCCCCl` [1-Chlorobutane] had a melting point of -123 °C.
Consider `CC1CCC(C(C)C)C(O)C1` (racemic) [dl-menthol], for which the melting point stood at 29 °C.
The result for `CCCCCCCCCCCCCCO` [1-tetradecanol] reads 40 °C; that for `CC(=O)C1C(=O)C=C(C)OC1=O` (stereo not given) [dehydroacetic acid], 111 °C; that for `CC(C)NCC(O)c1cc(O)cc(O)c1` (stereo not given) [metaproterenol], 100 °C.
The result for `c1ccc2cc3cc4ccccc4cc3cc2c1` [naphthacene] reads 357 °C.
To `CCSC(SCC)C(OC(C)=O)C(OC(C)=O)C(OC(C)=O)C(COC(C)=O)OC(C)=O` (stereo not given) belongs 112 °C.
In the case of `COc1ccc(Cl)c([N+](=O)[O-])c1` [4-chloro-3-nitroanisole], the melting point was 44 °C.
In the case of `CC(=O)c1ccccc1C(=O)O` [2-acetylbenzoic_acid], the melting point came out at 116 °C.
On to `O=[N+]([O-])c1ccc(Br)cc1` [1-bromo-4-nitrobenzene], for which the melting point was 126 °C.
`N#Cc1ccc(CO)cc1` [p-cyano_benzyl_alcohol] yielded a melting point of 42 °C.
To `O=Cc1ccc(Br)cc1` [p-bromobenzaldehyde] belongs 57 °C.
To `O=C(O)/C=C/c1ccccc1` [cinnamic acid] belongs 133 °C; to `Nc1cn[nH]c1` [4-amino-1h-pyrazole], 75 °C.
The result for `CC(C)(C)OC(=O)N[C@](C)(C(=O)O)c1ccc2ccccc2c1` [N-boc-2-(2-naphthyl)-D-alanine] reads 98 °C; that for `O=C(Cl)OCc1ccccc1` [benzyl chloroformate], -20 °C.
The compound `COC(=O)c1ccc(C)c(C)c1` [methyl 3,4-dimethylbenzoate] had a melting point of 36 °C.
The compound `CCc1cccc(C)c1N(C(=O)CCl)C(C)COC` (stereo not given) [metolachlor] came in with a melting point of 25 °C.
To `CCOc1ccc(NC(C)=O)cc1` [Phenacetin] belongs 135 °C; to `C=C(C)C(=O)OCCCC` [Butyl methacrylate], -50 °C; to `C=COCC` [Ethoxyethene], -115 °C.
To `NC(N)=S` [Thiourea] belongs 176 °C.
To `O=C(O)[C@H](O)[C@@H](O)C(=O)O` [L-tartaric acid] belongs 169 °C; to `C1CNCCN1` [piperazine, anhydrous], 110 °C; to `C#CC(C)(C)C` [3,3-Dimethylbut-1-yne], -78 °C.
For the compound `CC12CCC(=O)C=C1CCC1C2CCC2(C)C(O)CCC12` (stereo not given) [testosterone], the melting point stood at 153 °C.
Consider `O=C(O)Cc1cccc([N+](=O)[O-])c1` [3-nitrophenylacetic acid], for which the melting point came to 119 °C.
The result for `O=S(=O)(Cl)c1ccccc1` [benzenesulfonyl chloride] reads 15 °C; that for `CCc1ccc(C)cc1` [1-methyl-4-ethylbenzene], -62 °C; that for `CN(C)C(=O)Nc1ccc(Cl)cc1` [monuron], 172 °C and 174 °C.
On to `OB(O)C1CC1` [cyclopropylboronic acid], for which the melting point was 93 °C.
On to `CCNC(=O)OC(C)(C)C` [N-boc-ethylamine], for which the melting point worked out at 40 °C.

Values taken from the Bradley open melting point set (2014).
